Results on two molecules are retold here after US20150164855A1, “KETONE BODIES AND KETONE BODY ESTERS FOR MAINTAINING OR IMPROVING MUSCLE POWER OUTPUT” (priority 2012, published 2015).

Assay type in all cases: in vivo
Data set [1] is described as follows: Blood (R)-3-hydroxybutyrate concentration in rats following administration of ketones. The note with it: for Peak Blood (R)-3-hydroxybutyrate: rats fed sour cream mix containing 2 g ketone in 10 ml water, blood before feeding and after 1, 3 and 6 hours. The protocol: Experiments were carried out to determine the concentration of blood (R)-3-hydroxybutyrate in rats following administration of various ketones. The ketones tested are set out in Table 4 below. The ketones were tasted in the same manner as Ketones 1 to 8 above.
Rats were each fed with a sour cream mix containing 2 g of a ketone as set out in […] in 10 ml water. Samples of blood from each rat were taken immediately prior to feeding, after 1 hour, 3 hours and 6 hours to determine the blood concentration of (R)-3-hydroxybutyrate. Two controls (Control A and Control B) were also tested by feeding with the same mix without the ketone added. The rats were humanely killed and dissected for visual inspection to determine whether pyloric constriction or other visible changes had occurred.
Blood was extracted and 0.1 ml of whole blood was added to 0.4 ml 3.6% perchloric acid subjected to vortex and then allowed to rest in ice for 30 minutes and then spun. 350 ul of acidic supernatant were then transferred to a new tube and 5 ul phenol red (0.05%), 20 ul 1 M Imidazole pH 7 and 3 M KHCO3 was added to neutralize the solution which was allowed to stand in ice for 30 minutes and then spun. A sample of the neutralized blood extract was then assayed for (R)-3-hydroxybutyrate.

Data set [2] in a line: Uptake of oligomeric ketones into the blood (Example 2). The protocol: Procedures were carried out to determine the uptake of oligomeric ketones into the blood.
Data set [3] can be described thus: Single oral dose/response of blood (R)-3-hydroxybutyrate (Example 5). The following applies: 192, 291, 395 and 573 mg/kg single dose. The protocol: (R)-3-hydroxybutyrate-R-1,3-butanediol monoester was administered in a single dose based on a fixed amount per kg of body weight of the subject to a number of subjects. The blood (R)-3-hydroxybutyrate concentration was determined over a period of time to determine the dose/response relationship between the oral single dose and the blood concentration of (R)-3-hydroxybutyrate. The procedure was repeated with different quantities of (R)-3-hydroxybutyrate-R-1,3-butanediol monoester to provide data on the dose/response relationship for (R)-3-hydroxybutyrate-R-1,3-butanediol monoester when administered at 192 mg/kg, 291 mg/kg, 395 mg/kg and 573 mg/kg.

Data set [4] in a line: Visual inspection of dissected rats for pyloric constriction or other visible changes. The following applies: rats fed 2 g ketone, killed and dissected for visual inspection. The protocol: Rats were each fed with a sour cream mix containing 2 g of a ketone as set out in Table 3 in 10 ml water. […] Two controls (Control A and Control B) were also tested by feeding with the same mix without the ketone added. The rats were humanely killed and dissected for visual inspection to determine whether pyloric constriction or other visible changes had occurred.

In the case of `CC(O)CC(=O)OC(C)CC(=O)OC(C)CC(=O)OCC[C@@H](C)OC(=O)CC(C)OC(=O)CC(C)OC(=O)CC(C)O` (stereo partly drawn) [Ketone 10, (R)-1,3-butanediol ditriolide ester], the “Peak Blood (R)-3-hydroxybutyrate” value in data set [1] is reported as “about 1.5 mM”. The “level of uptake to the blood relative to the linear/other oligomers tested (Ketones 9, 11 and 12)” value in data set [1] (rats, 2 g ketone) is “around 10 times”. The “blood level of (R)-3-hydroxybutyrate (peak)” value in data set [2] was “about 1.5 mM”.

With “(R)-3-hydroxybutyrate-(R)-1,3-butanediol [Ketone 8]”, the “blood (R)-3-hydroxybutyrate concentration after single oral dose” value in data set [3] was “levels not previously reported with other ketones”. Besides, in data set [1], the “Peak Blood (R)-3-hydroxybutyrate” value is recorded as 6 mM. The “level of uptake to the blood relative to the triolide diester oligomer (Ketone 10)” value in data set [1] (rats, 2 g ketone) is “around 4 times”. Further, the “blood level of (R)-3-hydroxybutyrate (peak)” value in data set [2] came to 6000 µM. Besides, the Symptoms entry in data set [4] is recorded as “No pyloric constriction, no gas”.
